Reference: patent US20260284014A1, “3,5-DIAMINOTRIAZOLE DERIVATIVES AND USES THEREOF FOR TREATING OCULAR DISEASES” (CENTRE NATIONAL DE LA RECHERCHE SCIENTIFIQUE, priority 2023, published 2026)
“Also recorded” adds a separate entry of the source.

Experiments:
[1] = test system: ARPE-19 cells; assay: Cell viability (XTT assay); type: cell-based; details: Homo sapiens, 48 h, read-out: A. Safety IC50 on ARPE-19 cells
Procedure: ARPE-19 cells were incubated in a 96-well plate with different effectors for 48 hours. Fifty microliters of sodium 3′-[1-phenylaminocarbonyl)-3,4-tetrazolium]-bis(4-methoxy-6-nitro) benzene sulfonic acid hydrate (XTT) reagent was added to each well. The test is based on the cleavage of the yellow tetrazolium salt XTT to form an orange formazan dye by metabolically active cells. This bio-reduction occurs in viable cells only and is associated with NAD(P)H production through glycolysis. Therefore, the amount of formazan dye measured at 490 nm, correlates directly with the number of metabolically active cells reflecting cell proliferation, viability, and cytotoxicity. Each assay was performed in quadruplicate.
(§1) All compounds were evaluated in different experiments. Results are represented as the mean of three independent experiments. A. ARPE-19 cells were treated with dose response of compound for 48 h. Values are reported as IC50 measured with the XTT assay. B and C. ARPE-19 cells were treated with 5 μM (B) or 1 μM (C) compound then with 200 μM H2O2 for 2 h. ROS were analyzed by cytometry. […] As illustrated in FIG. 1A. D. ARPE-19 cells were treated with 2.5 μM compound for 48 h and the level of CXCL1 mRNA was evaluated by qPCR. […] As illustrated in FIG. 1B. E. TIME cells were pre-treated with 2.5 μM compound for 1 h then stimulated with 100 ng/ml CXCL8 for 15 min p-ERK levels were analyzed by immunoblotting. HSP90 served as loading control. […] As illustrated in FIG. 1C.

[2] = test system: ROS; assay: ROS labeling by cytometry after H2O2; type: cell-based; details: for inhibition at 1 µM / inhibition at 5 µM: Homo sapiens, ARPE-19; for inhibition at 1 µM: 1 μM compound then 200 μM H2O2 for 2 h, read-out: C. ROS inhibition 1 μM - ARPE-19 cells; for inhibition at 5 µM: 5 μM compound then 200 μM H2O2 for 2 h, read-out: B. ROS inhibition 5 μM - ARPE-19 cells
Procedure: ARPE-19 cells were treated with MCK349 30 minutes then with 200 μM H2O2 for 2 h. 10 μM DCF-DA (2′,7′-Dichlorofluorescein diacetate) were added on cell media for 30 min. Cells were rinsed then detached (trypsin) and resuspended in PBS 0.5% BSA and 2 mM EDTA. The cells are analyzed by cytometry (ROS labeled with DCFDA-FITC).
as §1

[3] = test system: ERK activation (p-ERK); assay: p-ERK immunoblotting after CXCL8 stimulation; type: cell-based; details: 2.5 μM compound 1 h then 100 ng/ml CXCL8 for 15 min; read-out: E. p-ERK inhibition - TIME
Procedure: Cells were lysed in buffer containing 3% SDS, 10% glycerol and 0.825 mM Na2HPO4. 30 to 50 μg of proteins separated on 10% SDS-PAGE, transferred onto a PVDF membrane and then exposed to the appropriate antibodies. Proteins were visualized with the ECL system using horseradish peroxidase-conjugated anti-rabbit or anti-mouse antibodies.
as §1

[4] = test system: ocular (retinal) neo-angiogenesis; assay: Hypoxia-induced retinal neo-angiogenesis in zebrafish; type: in vivo; details: hypoxia 5% oxygen 72 h, 0.25, 0.5, or 1 μM
Procedure: All animal experiments were approved by the Experimental Animal Ethical Committee. Transgenic zebrafish embryos (fli: EGFP, blood vessels marked in GFP) were raised at 28° C. under standard experimental conditions. Zebrafish embryos at the age of 24 hpf were incubated in aquarium water containing 0.2 mmol/L 1-phenyl-2-thio-urea (PTU, Sigma). At 48-hpf, zebrafish embryos were placed for 72 h in normoxia (Nx) or hypoxia 5% oxygen […], in the presence of treatment. Retinal neo-angiogenesis was analyzed by fluorescent confocal microscope and quantified by ImageJ.

[5] = test system: TIME cells; assay: Vessels formation assay on Matrigel; type: cell-based; details: 5 or 10 μM
Procedure: 300 μL of Matrigel Matrix were coated in 24-well plates and put 1 h a 37° C. Then Time cells were plated (300 000 cells/well). Plates were then incubated at 37° C., 5% CO2 for 24 hours. Representative images were taken with the Evos XL Core Cell Imaging System at low magnification (4×).

[6] = test system: TIME cells; assay: Endothelial cells proliferation; type: cell-based; details: 72 h
Procedure: TIME cells were plated in 12-well plates (25 000 cells/well) in 0.5% SVF media and then stimulated with 100 ng/mL CXCL8 or CXCL7 for 72 h. Cell proliferation is assessed by cell count. The results are expressed as % of day 0 relative to the condition tested.

[7] = test system: pro-inflammatory cytokines; assay: LPS stimulated whole blood, multiplex ELISA; type: cell-based; details: human whole blood, 5 or 10 μM 1 h prior to 10 ng/ml LPS for 18 h
Excerpt: Human peripheral […] were obtained from healthy donors with informed consent following the Declaration of Helsinki according to recommendations of an independent scientific review board. The project has been validated by The Etablissement Français du Sang, the French national agency for blood collection (protocol 7952NQ). Blood samples were collected using ethylene diamine tetraacetic acid-containing tubes.
Whole blood will be removed from a single donor (K3-EDTA) and diluted 1:5 with RPMI 1640. Within 30 minutes of sampling, blood will be incubated with 5 or 10 μM MCK349 for 1 h prior to 10 ng/ml LPS stimulation for 18 h. Blood is centrifuged to recover plasma and cytokines are analyzed by multiplex ELISA (Meso Scale Discovery).
(§2) Cytokines from plasma (whole blood) or supernatant (ARPE-19 cells) were analyzed by multiplex ELISA. A multiplex ELISA was designed from U-PLEX Biomarker Group 1 (hu) Assays (K15069L-1). The protocol performed follows the instructions of the supplier.

[8] = test system: pro-inflammatory, pro-angiogenic and/or pro-fibrotic mRNA markers; assay: ARPE-19 stimulation to mimic diabetic retinopathy in vitro, mRNA by qPCR; type: cell-based; details: ARPE-19, high glucose + cytokines, 5 or 10 μM
Procedure: One microgram of total RNA was used for the reverse transcription, using the QuantiTect Reverse Transcription kit (QIAGEN, Hilden, Germany), with blend of oligo (dT) and random primers to prime first-strand synthesis. SYBR master mix plus (Eurogentec) was used for qPCR. The mRNA level was normalized to 36B4 mRNA
(§3) ARPE-19 cells were cultured in hyperglycaemic conditions (D-glucose, 25 mmol/l) for 16 days at 37° C. under 5% CO2 in medium (DMEM/F12) supplemented with 10% FBS and 1% penicillin. On day 16, cells were pre-treated with MCK349. On day 17, cells were washed and treated with MCK349 and cytokines (10 ng/ml IL1ß, 25 ng/ml VEGF and 25 ng/ml TNFα) for 24 h. Cytokines are analyzed by multiplex ELISA (Meso Scale Discovery) on the supernatant. Cells were recovered to analyze the mRNA level of different markers by qPCR.

[9] = test system: pro-inflammatory, pro-angiogenic and/or pro-fibrotic cytokines; assay: ARPE-19 stimulation to mimic diabetic retinopathy in vitro, cytokines by multiplex ELISA; type: cell-based; details: ARPE-19, high glucose + cytokines, 5, 10, or 25 μM
Procedure: as §3, §2

[10] = test system: choroidal neovascularization (CNV); assay: Laser induced choroidal neovascularization and vascular leakage in mice; type: in vivo; details: intravitreal 52 μg/ml (2 μl) four times, Day 9 and 15
Procedure: Laser photocoagulation (shoot retina with laser beam (50 μm, 0.1 s, and 250~300 mW or any other parameters reasonable) for 4 spots avoiding blood vessels) were performed binocularly on each animal at Day 1 on male C57 mice (8 mice per group).
Vehicle and MCK349 (52 μg/ml) were delivered by binocular intravitreal injection (2 μl) four times in total. Once on Day 1 (right after modeling), Day 4, Day 7 and Day 11. Optical Coherence Tomography (OCT) was performed once on modeling day right after laser photocoagulation and once on Day 9 and Day 15. CNV volume of each lesion will be measured. Fundus Fluorescein Angiography (FFA) was conducted once on Day 9 and Day 15. The angiograms will be graded as follows: Grade 0, no bright hyperfluorescence; Grade 1, hyperfluorescence without leakage; Grade 2a, hyperfluorescence and late leakage; and Grade 2b, bright hyperfluorescence and late leakage beyond treated areas.

Structure (SMILES) | IC50 [1] [µM] | inhibition at 1 µM [2] [%] | inhibition at 5 µM [2] [%] | inhibition at 2.5 µM [3] [%] | ocular (retinal) neo-angiogenesis in zebrafish [4] | oxidative stress (ROS) inhibition ([2]; ARPE-19, 1 μM MCK349 then 200 μM H2O2 for 2 h) | vessel formation on matrigel [5] | endothelial cell proliferation induced by CXCL7 ([6]; 100 ng/mL CXCL7, 0.1, 0.2 or 0.5 μM) | endothelial cell proliferation induced by CXCL8 ([6]; 100 ng/mL CXCL8, 0.1, 0.2 or 0.5 μM) | pro-inflammatory cytokines induced by LPS stimulation in whole blood [7] | expression (mRNA) of pro-angiogenic and/or pro-inflammatory cytokines in diabetic retinopathy model in vitro [8] | secretion of pro-angiogenic and/or pro-inflammatory cytokines in diabetic retinopathy model in vitro [9] | choroidal neovascularization (CNV) [10] | vascular leakage (FFA grade 2b lesions) [10] | ocular (retinal) neo-angiogenesis in zebrafish ([4]; listed as MC342)
CC(C)c1ccc(Cn2nc(Nc3ccccc3)nc2N)cc1 [MCK263, 1-(4-isopropylbenzyl)-N^3-phenyl-1H-1,2,4-triazole-3,5-diamine] | > 25 | ≥ 50 | ≥ 50 | ≥ 50 | inhibit ocular (retinal) neo-angiogenesis; also recorded: inhibit ocular neoangiogenesis | – | – | – | – | – | – | – | – | – | –
Nc1nc(Nc2ccc(Cl)c(Cl)c2)nn1Cc1cccc(Br)c1 [MCK349, 1-(3-bromobenzyl)-N^3-(3,4-dichlorophenyl)-1H-1,2,4-triazole-3,5-diamine] | > 25 | ≥ 50 | ≥ 50 | ≥ 50 | inhibit ocular (retinal) neo-angiogenesis; also recorded: inhibit ocular neoangiogenesis | inhibits oxidative stress | inhibiting vessel formation on matrigel | inhibiting endothelial cell proliferation | inhibiting endothelial cell proliferation induced by CXCL8 | inhibit pro-inflammatory cytokines | inhibits pro-inflammatory, pro-angiogenic and/or pro-fibrotic mRNA markers; also recorded: inhibit the expression | inhibits pro-inflammatory, pro-angiogenic and/or pro-fibrotic cytokines; also recorded: inhibit the expression (mRNA, FIG. 3) and secretion | inhibits vascular leakage (FIGS. 9A and B) and neovascularization; also recorded: inhibits choroidal neovascularization (CNV) | inhibits choroidal neovascularization (CNV) and vascular leakage | –
Cc1ccc(Nc2nc(N)n(Cc3cccc(Br)c3)n2)cc1 [MCK342, 1-(3-bromobenzyl)-N^3-(4-methylphenyl)-1H-1,2,4-triazole-3,5-diamine] | > 25 | ≥ 50 | ≥ 50 | < 50 | inhibit ocular neoangiogenesis | – | – | – | – | inhibit pro-inflammatory cytokines | inhibit the expression | inhibit the expression (mRNA, FIG. 3) and secretion | – | – | inhibit ocular (retinal) neo-angiogenesis
